According to patent publication US20150037832A1, “METHODS OF FACILITATING THE BIOCONVERSION OF CRUDE BIODIESEL-DERIVED GLYCEROL BY MICROORGANISMS” (priority 2011, published 2015):
Values joined by “and” are separate entries in the source; they are usually repeats but may differ in a detail not shown here. Equal values may be shown once. Read-outs that look alike come from different tables or passages of the source.

Tests used:
[1] = system: Clostridium pasteurianum ATCC 6013; assay: Effect of impurities on glycerol fermentation; type: cell-based; details: for growth and product yield: salt at 2.5, 5, 7.5 and 10% (w/w) of initial glycerol; for growth and product yield / substrate utilization: 25 g/L pure glycerol; for substrate utilization: fatty acid sodium salt at 5%, 10% and 15% (w/w) of initial substrate
Method: Defined media was used for glycerol utilization.
To study the effect of impurities in crude glycerol, various concentrations of each impurity were added to the media containing 25 g/L pure glycerol. Methanol was added at 2.5 g/L and 5 g/L. Potassium chloride and potassium sulfate were added at 2.5, 5, 7.5 and 10% (w/w) of the initial glycerol concentration. The fatty acids were added in the form of sodium salts of steric acid, oleic acid and linoleic acid at 5, 10 and 15% (w/w) (of initial substrate conc.). The media containing 25 g/L of pure glycerol was used as the control. The effects of fatty acids were also studied by partially purifying the crude glycerol by precipitating the fatty acids using concentrated hydrochloric acid. The crude glycerol was diluted in deionized water at a ratio of 1:3 and hydrochloric acid was added to lower pH to between 2 and 3. At this pH the fatty acids precipitated and were removed by centrifugation at 5000 rpm for 15 minutes. The precipitated fatty acids were later analyzed using NMR by dissolving them in d-DMSO.

[2] = system: Clostridium pasteurianum ATCC 6013
Method: The cell membrane was extracted using dichloromethane/methanol mixtures. The membrane extracted in dichloromethane was separated by evaporating the solvents under a gentle nitrogen stream. This dry film of the membrane was used for further analysis.
The dry film of the membrane was dissolved in deuterated chloroform for NMR analysis. Synthetic lipids such as Diaplmitoylphosphotidylcholine (DPPC) and Dioleylphosphotidylcholine (DOPC) were used as standards for NMR analysis. The dry films of the membrane lipids were labeled with DPH (500:1) and made into liposomes for analyzing the stability of the membrane by studying the fluorescence anisotropy using a Perkin-Elmer LS50B.

[3] = system: Clostridium pasteurianum ATCC 6013; assay: Product yields and substrate utilization of fermentation (HPLC); details: for effect of addition on butanol / product formation: added to glycerol fermentation; for 1,3-PDO yield / conversion: sole carbon source
Method: Freeze dried pure cultures of C. pasteurianum were revived using nutrient rich reinforced clostridal growth media (RCM) and glycerol stock cultures were prepared for future use. […] Pre-culture for glycerol utilization experiments were grown in RCM. The growth was monitored using optical density and the cultures were used as inoculum once they reached mid-exponential phase of growth. The growth experiments were conducted in 75 mL culture flasks containing 40 mL of the media and 5 mL of inoculum. Defined media was used for glycerol utilization. Unless otherwise specified purified glycerol or biodiesel derived crude glycerol were used as the sole carbon source. All experiments were conducted in an anaerobic chamber (95% N2 and 5% H2) at a temperature of 37° C. to ensure oxygen-free conditions.
(§1) Pre-cultures for glycerol utilization experiments were grown in RCM. The growth was monitored using optical density (λ=600 nm) and the cultures were used as inoculum once they reached the mid-exponential phase of growth. 100 mL of Biebl medium with appropriate carbon sources was inoculated with 10% inoculum and the contents were split equally into three in a 75 mL culture flask. All experiments were carried out in batch cultures and in triplicates. The cultures were monitored for growth, substrate utilization and product formation as mentioned earlier.
The co-fermentation of sugars was studied using hexose (dextrose) and pentose (D-xylose and L-arabinose) with 20 g/L of pure glycerol at a concentration of 10 g/L of the sugars, maintaining a 2:1 ratio of glycerol and sugars. Cells grown on glycerol or sugar alone were used as controls.

[4] = system: Clostridium pasteurianum ATCC 6013; assay: Growth (optical density, μmax) and pH profiles of batch cultures; type: cell-based; details: for effect on maximum optical density: 2 g/L sodium salt in 25 g/L pure glycerol; for maximum specific growth rate, μmax: exponential log phase, 20 g/L glycerol and/or 10 g/L sugar
Method: as §1
The co-fermentation of sugars was studied using hexose (dextrose) and pentose (D-xylose and L-arabinose) with 20 g/L of pure glycerol at a concentration of 10 g/L of the sugars, maintaining a 2:1 ratio of glycerol and sugars. Cells grown on glycerol or sugar alone were used as controls. […] Acetate and butyrate were studied at concentrations of 2 g/L with an initial glycerol concentration of 25 g/L of pure glycerol. Biotin was supplemented in the media at 0.8 mg/L with an initial concentration of 25 g/L of pure glycerol.

C. acetobutylicum = details: butyrate addition at 2 g/L, reported; cited from earlier work
[5] = endogenously produced butanol, defined media, varied glycerol concentration
[6] = exogenous butanol 2 g/L to 20 g/L, defined media with 50 g/L glucose and RCM
[7] = L-arabinose added to glycerol, vs glycerol alone

**Q.** With `O=S(=O)([O-])[O-].[K+].[K+]` [potassium sulfate] as the molecule, how does the “growth and product yield” value [1] read?
**A.** no detrimental effect on growth and product yield

**Q.** With butanol as the molecule, how does the anisotropy of membrane [2, 5] read?
**A.** corresponding increase in anisotropy

**Q.** What about the “degree of unsaturation of membrane fatty acids” value [2, 5] of the same molecule?
**A.** a decrease in the degree of unsaturation

**Q.** And the anisotropy of membrane [2, 6]?
**A.** found to decrease

**Q.** And the “degree of unsaturation of membrane fatty acids” value [2, 6]?
**A.** observed to increase

**Q.** Which “increase in butanol formation” value ([3]; supplement (acetate 2 g/L, biotin 0.8 mg/L) in 25 g/L pure glycerol, vs control) does the source give for `O=C(O)CCCC[C@@H]1SC[C@@H]2NC(=O)N[C@@H]21` [biotin] here?
**A.** 18% and ~25%

**Q.** What does the source list for `CCCC(=O)[O-].[Na+]` [butyrate, sodium butyrate]?
**A.** effect on maximum optical density [4]: slightly lower maximum optical density; lowering of the maximum optical density ([4]; butyrate 2 g/L in 25 g/L pure glycerol): 20%; increase of butanol production (C. acetobutylicum): 1.6 folds; effect of addition on butanol / product formation [3]: did not increase butanol production

**Q.** For `CC(=O)[O-].[Na+]` [acetate, sodium acetate], which “effect on maximum optical density” value [4] is on record?
**A.** small increase in the maximum optical density

**Q.** And the “decrease in 1,3-PDO production” value [3]?
**A.** 33%

**Q.** What about the “increase in butanol formation” value [3] of the same molecule?
**A.** ~25% and 23%

**Q.** With `[Cl-].[K+]` [Potassium chloride] as the molecule, how does the “growth and product yield” value [1] read?
**A.** no detrimental effect on growth and product yield

**Q.** Which results are given for `OCC(O)CO` [Glycerol, glycerol]?
**A.** maximum specific growth rate, μmax [4]: 1.562 ± 0.118 day⁻¹; butanol yield ([3]; control experiment with glycerol): 22 % (g/g); 1,3-PDO yield / conversion ([3]; control): 20 % (g/g)

**Q.** Which “maximum specific growth rate, μmax” value [4] does the source give for `O=C[C@H](O)[C@@H](O)[C@@H](O)CO` [L-arabinose] here?
**A.** 0.933 ± 0.054 day⁻¹

**Q.** What about the ethanol yield ([3]; L-arabinose added to glycerol) of the same molecule?
**A.** 0.10 g/g

**Q.** And the “increase of 1,3-PDO yield” value [3, 7]?
**A.** 65%

**Q.** And the “increase of ethanol yield” value [3, 7]?
**A.** 5 fold

**Q.** What about the “1,3-PDO and ethanol as share of overall products” value ([3]; L-arabinose as carbon source) of the same molecule?
**A.** 85%

**Q.** What about the “effect of addition on butanol / product formation” value [3] of the same molecule?
**A.** does not affect the yield of butanol

**Q.** And the “ratio of butanol/1,3-PDO” value ([3]; addition of L-arabinose to glycerol)?
**A.** 0.64

**Q.** What about the “1,3-PDO maximum yield” value ([3]; control, L-arabinose sole carbon source) of the same molecule?
**A.** 36.5 % (g/g)

**Q.** And the “1,3-PDO yield / conversion” value ([3]; control)?
**A.** 28 % (g/g)

**Q.** And the “Ethanol and 1,3-PDO as share of the products yielded” value ([3]; cultures on arabinose)?
**A.** ~86 % (mol/mol)

**Q.** And the “1,3-PDO yield” value ([3]; sugar 10 g/L added as co-substrate to 20 g/L glycerol, with respect to glycerol)?
**A.** 0.33 g/g

**Q.** With `O=C[C@H](O)[C@@H](O)[C@H](O)CO` [D-xylose] as the molecule, how does the “maximum specific growth rate, μmax” value [4] read?
**A.** 0.794 ± 0.390 day⁻¹

**Q.** And the “acetate, 1,3-PDO and ethanol as share of the overall products” value ([3]; D-xylose as sole carbon source)?
**A.** 88%

**Q.** And the product formation ([3]; D-xylose as sole carbon source)?
**A.** 0.78 g/g

**Q.** And the “effect of addition on butanol / product formation” value [3]?
**A.** did not result in an increase in the formation of any of the products

**Q.** What about the “utilization of D-xylose” value ([3]; addition of D-xylose to glycerol fermentation, 2:1) of the same molecule?
**A.** 25±16%

**Q.** What about the “D-xylose left unconsumed in the media” value ([3]; co-fermentation of glycerol with xylose) of the same molecule?
**A.** more than 90%

**Q.** With `CCCCCCCC/C=C\CCCCCCCC(=O)[O-].[Na+]` [sodium oleate] as the molecule, how does the substrate utilization [1] read?
**A.** not affected

**Q.** For `CO` [methanol], which “growth or product formation during the fermentation of glycerol” value ([1]; methanol at 2.5 g/l and 5 g/L in media with 25 g/L pure glycerol) is on record?
**A.** no reduction in growth or product formation

**Q.** With `CCCCCCCCCCCCCCCCCC(=O)[O-].[Na+]` [sodium stearate] as the molecule, how does the substrate utilization [1] read?
**A.** not affected

**Q.** For `CCCCC/C=C\C/C=C\CCCCCCCC(=O)[O-].[Na+]` [sodium linoleate], which substrate utilization [1] is on record?
**A.** completely inhibited
